Source: paper PMC10107917 (ACS Medicinal Chemistry Letters, 2023)
Read-outs that look alike come from different tables or passages of the source. Square brackets hold non-standard residues; d marks the D form. * marks the point of attachment. AMC = Cc1cc(=O)oc2cc(N*)ccc12; pGlu = O=C1CC[C@@H](C(=O)O)N1

What was measured:
human recombinant furin [1] = target: T1, human recombinant furin (Homo sapiens, UniProt P09958); type: biochemical
T1 construct: Soluble human recombinant furin was kindly gifted; gift of Dr Anna Kwiatkowska (group of Prof. Robert Day, Université de Sherbrooke)
T1 sequence (P09958 108-715 limits assumed): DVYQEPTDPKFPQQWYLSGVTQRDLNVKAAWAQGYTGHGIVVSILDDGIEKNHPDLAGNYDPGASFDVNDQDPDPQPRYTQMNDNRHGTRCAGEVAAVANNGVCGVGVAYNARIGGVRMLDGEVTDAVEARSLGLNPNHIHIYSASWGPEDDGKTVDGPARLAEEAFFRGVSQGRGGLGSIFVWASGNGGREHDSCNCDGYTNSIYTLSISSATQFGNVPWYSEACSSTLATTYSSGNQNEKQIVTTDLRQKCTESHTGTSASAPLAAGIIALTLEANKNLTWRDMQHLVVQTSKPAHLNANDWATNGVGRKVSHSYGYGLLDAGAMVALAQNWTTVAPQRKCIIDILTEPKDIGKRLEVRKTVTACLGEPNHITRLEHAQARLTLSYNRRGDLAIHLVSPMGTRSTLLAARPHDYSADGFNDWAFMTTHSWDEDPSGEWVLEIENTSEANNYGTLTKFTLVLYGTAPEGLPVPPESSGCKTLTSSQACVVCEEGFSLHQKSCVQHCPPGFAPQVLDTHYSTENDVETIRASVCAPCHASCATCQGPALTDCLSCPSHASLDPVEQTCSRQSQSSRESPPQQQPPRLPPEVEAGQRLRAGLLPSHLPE
Procedure: Initially, the activities of the furin inhibitors were screened at three concentrations, i.e., 2.4, 24.0, and 77.0 nM (Figure 4). For selected peptides 3, 5, and 6 and the reference FI, the inhibitory constants (Ki) were calculated (Table 2). Except for the bicyclic peptide 4, all of the inhibitors almost completely abolished the enzyme activity at the highest tested concentration. Peptide 4 was explicitly the weakest inhibitor in the series, also when compared with its monocyclic disulfide-bridged counterpart 1. When the inhibitory activities were analyzed at the lowest tested concentration (2.4 nM), three peptides (3, 5, and 6) reduced the furin activity to less than 50% of its initial noninhibited activity. All of them have an additional basic amino acid at their N-termini (in MD simulations this is depicted as a residue with number “0”). […] Such close inhibitory potency was not observed in the case of an analogous pair, i.e., 2 and 5. […] The two disulfide-bridged peptides, FI and 1, differ only at the P4 position, having Lys and Arg, respectively. […]
The IC50 values (inhibitor concentrations giving 50% inhibition of enzyme activity) were calculated from plots of enzyme activity (% of control sample) versus the inhibitor’s concentration using a four-parameter fit model (GraFit 5.0.12 Erithacus Software Ltd.). The IC50 values were determined from triplicate measurements with at least seven different inhibitor concentrations. The K i values […] were calculated using the Cheng-Prusoff equation, assuming the competitive mode of inhibition, according to the following relationship: IC50 = K i(1+S/Km). All measurements were performed using a Fluostar Omega microplate reader (BMG Labtech, Germany) and 96-well black plates (BRAND, Germany). Recombinant human matriptase-1/ST14 catalytic domain was purchased from R&D Systems, USA. Recombinant human matriptase-2 was obtained from Enzo Life Sciences, Switzerland.
Soluble human recombinant furin was kindly gifted by Dr Anna Kwiatkowska (group of Prof. Robert Day from Université de Sherbrooke).4
The following assay buffers were used: […] (matriptase-1 and matriptase-2), pH 7.5 100 mM HEPES with 1 mM CaCl 2 and 1.8 mg/mL BSA (furin). The substrates used in the assays were as follows: for matriptase-1 and matriptase-2 Boc-Gln-Ala-Arg-AMC (Pepta Nova, Germany) in final concentration of 5 µM, for furin […] (Pepta Nova, Germany) in final concentration of 20 µM. Enzymes concentrations were as follows: 1.25 ng/mL of matriptase-1, 1.51 U/mL for matriptase-2, and 1.1 nM for furin. In the case of matriptase-1 and matripase-2 concentrations were calculated according to information provided by the suppliers.
In short, the tested compounds were added to the appropriate protease in different concentrations and incubated in an assay buffer at 37 °C for 30 min. After this time, a solution of appropriate substrate was added. Reactions were monitored for at least 40 min at 37 °C. The final volume in each well was 200 µL for matriptases and 100 µL for furin. Measurements were carried out using excitation and emission wavelengths of 380 nm and 450 nm. The percentage inhibition of an enzyme was calculated relative to the control sample without an inhibitor. The K m value for furin substrate was determined by incubating the enzyme with its substrate in various concentrations as recommended.5 Plots of the substrate concentration versus the initial reaction velocity were analyzed according to Michaelis-Menten equation using GraFit 5.0.12 Erithacus Software Ltd. A double reciprocal (Lineweaver-Burk) plot was used to determine the Michaelis constant K m value. K m value determined for furin was 1.90 µM.
(§1) Total furin-like enzyme inhibition/activity in PANC-1 cell lysates
Cell line and cell culture. The pancreatic cancer cell line, PANC-1, was obtained from the American Type Culture Collection, ATCC (Manassas, USA). […]

human recombinant furin [2] = target: T1, human recombinant furin; assay: Screening (iterative deconvolution) of peptide sublibraries for furin inhibition; type: biochemical; conditions: Figure 3D1
Procedure: Each of the sublibraries was screened for inhibitory activity against human recombinant furin in the presence of the fluorogenic substrate Pyr-Arg-Thr-Lys-Arg-AMC (where Pyr is pyroglutamic acid and AMC is 7-amino-4-methylcoumarin). Initially, each sublibrary was screened in a 2.2 ng/mL stock solution (Figure 3).
Phe(4-NH-Boc) we experienced difficulties with complete coupling. So we performed reactions by applying microwave heating (50 °C) which improved the process. The same procedures were applied during the whole library synthesis. 10% of mass of each portion was removed for deconvolution.
2. After that, both portions were combined and divided into 10 (j) equal portions, each of which was acylated individually with different protected amino acid. 10% of the mass of each portion was removed for deconvolution.
3. After mixing all j portions of peptidyl–resin, Cys protected derivative was attached.
4. […]
6. Sublibraries with fixed best hits in Xaa (l-j) were subsequently synthesized (using previously put aside 10% of synthesized sublibraries) and their inhibitory activity was determined until the position Xi. […] The inhibitory activity of sublibraries against furin were measured using Pyr-Arg-Thr-Lys-Arg-AMC fluorogenic substrate (Pepta Nova). The experiments were performed on 96-well plates (BRAND, Germany) and microplate reader FluoStar Omega (BMG Labtech, Germany). […]

PANC-1 cell lysate = conditions: human, 37 °C
[3] = system: furin-like enzyme activity in PANC-1 cell lysate; assay: Total furin-like enzyme activity in PANC-1 cell lysate; type: biochemical, human; conditions: peptide 100 µM
Procedure: The presence of furin in PANC-1 cell lysate was indicated by analyzing the release of fluorescent AMC product after incubation of furin substrate (Pyr-Arg-Thr-Lys-Arg-AMC) in the lysate, as described elsewhere.[31],[32] However, we are aware that this assay tends to reflect total furin-like enzyme activity rather than the activity of furin exclusively. This is the case because the liberation of AMC may be catalyzed not only by furin but also by an enzyme with a similar substrate preference, such as other PCs.[31] […] For comparison, the effect of a strong trypsin inhibitor, […] SFTI-1, on furin-like activity was insignificant under the same assay conditions. […] It is likely that SFTI-1 may provide protection for furin inhibitors from degradation by trypsin-like proteases. […]
µL for matriptases and 100 µL for furin. Measurements were carried out using excitation and emission wavelengths of 380 nm and 450 nm. The percentage inhibition of an enzyme was calculated relative to the control sample without an inhibitor. […]
as §1
Cell line and cell culture. The pancreatic cancer cell line, PANC-1, was obtained from the American Type Culture Collection, ATCC (Manassas, USA). PANC-1, a human pancreatic cancer cell line, was isolated from the pancreatic duct (ATCC, CRL-1469) and was cultured in Dulbecco’s Modified Eagle’s Medium (DMEM) by supplementing 10% fetal bovine serum (FBS) and 1% of penicillin/streptomycin (P/S). Cells were cultured at 37 °C with 5% CO2 in a humidified atmosphere. Cells were maintained in a 75 cm2 tissue culture flask. The medium was replaced every two days. The subcultivation ratio was […]
Preparation of lysates. PANC-1 cells were seeded in a Petri dishes. After 24 hours, […] were collected and centrifuged at 975 × g at 4 °C for 9 minutes. The supernatant was removed, and the cells were resuspended in a cold PBS buffer. The cells were centrifuged again at 900 × g at 4 °C for 5 minutes.
The supernatant was removed. Cells were suspended in Halt Protease Inhibitor Cocktail, EDTA-Free (100X) (Thermo Fisher Scientific). The samples were stored for 2 hours at -80°C. The samples were then defrosted and centrifuged at 16 000 × g at 4 °C for 20 minutes. The supernatant was stored at -80 […]
The inhibitory potency of selected peptides was examined in cell lysate alone or in presence of sunflower trypsin inhibitor (SFTI-1)6 sing furin fluorogenic substrate […] (Pepta Nova, Germany). Furin activity was determined by monitoring the AMC liberation over time with a plate reader. Measurements were performed using 96-well black plates (BRAND, Germany).
The general procedure was according to.7 In short: 20 µL of cell lysate (diluted 10 times with assay buffer pH 7.5 100 mM HEPES with 1 mM CaCl 2) was added to the well containing 60 µL of water, after 15 min in 37 °C 10 µL of peptide solution (final concentration in well 100 µM) was added. After 30 min incubation in 37 °C 10 µL substrate (100 µM final concentration) was added. […]
Next step was addition of appropriate peptide solution
(final concentration in well 100 µM) and 30 min incubation in 37 °C. After this time 10 µL substrate (100 µM final concentration) was added to the well. Percentage inhibition of the enzyme was calculated relative to the control sample without inhibitor.
Human serum from plasma (Sigma Aldrich, Germany) was prepared for the assay as referred previously.8 The experiments were carried out according to the procedure described before.2 The initial concentration of the peptide solutions was 1.54 mM. Each peptide solution was then diluted 10 times with human serum and incubated at 37 °C. Immediately after the start of incubation, 1, 2, 3, 5 and 24

[4] = inhibitor 77.0 nM (highest tested concentration)

furin activity versus control with no inhibitor added (human recombinant furin [1]; inhibitor 2.4 nM) [%] | furin activity versus control with no inhibitor added (human recombinant furin [1]; inhibitor 24.0 nM) [%] | furin activity versus control with no inhibitor added (human recombinant furin [1]; [4]) [%] | times more active than the peptide with Orn at P2 (human recombinant furin [2]) | cleaved bond (PANC-1 cell lysate) | Substance | effect on furin-like activity in PANC-1 cell lysate [3]
97.18 | 46.14 | 3.72 |  |  | &^1Arg-Arg-Cys(&^2)-Lys-Lys-Ser-Ile-Pro-Pro-Ile-Cys(&^2)-Phe&^1 (KKSIPPIC; Arg-Arg-Cys, Phe; head-to-tail cyclised, disulfide; printed: Lys-Lys-Ser-Ile-Pro-Pro-Ile-Cys) [inhibitor 4] | 
62.95 | 6.02 | 0.20 | 2–3 times |  | Arg-Arg-Cys(&)-Lys-Lys-Ser-Ile-Pro-Pro-Ile-Cys(&)-Phe-NH2 [inhibitor 1] | 

The remaining lines, values behind:

Substance | furin activity versus control with no inhibitor added (human recombinant furin [1]; inhibitor 2.4 nM) [%] | furin activity versus control with no inhibitor added (human recombinant furin [1]; inhibitor 24.0 nM) [%] | furin activity versus control with no inhibitor added (human recombinant furin [1]; [4]) [%] | times more active than the peptide with Orn at P2 (human recombinant furin [2]) | cleaved bond (PANC-1 cell lysate) | effect on furin-like activity in PANC-1 cell lysate [3]
Lys-Arg-Arg-Cys(&)-Lys-Lys-Ser-Ile-Pro-Pro-Ile-Cys(&)-Phe-NH2 [inhibitor 2] | 66.51 | 3.98 | 0.10 |  |  | 
[pGlu]RTKR-{AMC} |  |  |  |  | Arg-AMC | 
sunflower trypsin inhibitor 1 [SFTI-1, reference compound] |  |  |  |  |  | insignificant
